According to article PMC9780888, “4-Isobutylmethcathinone—A Novel Synthetic Cathinone with High In Vitro Cytotoxicity and Strong Receptor Binding Preference of Enantiomers” (Pharmaceuticals, 2022):
Counter-ions that a name gives are not always drawn.

What was measured:
Type in all cases: cell-based, human
[1] = test system: SH-SY5Y; assay: WST-1 viability assay, SH-SY5Y cells; conditions: 72 h incubation, WST-1, four replicates
Protocol: (§1) Based on the novelty of the IMBcat compound, we aimed to evaluate its in vitro cytotoxicity in selected model cell lines as well as to determine the toxicity of the IBMcat enantiomers, since both the chemical structure and chirality of compounds could play a role in their bioactivity (Table 2). The cytotoxic profile of the IBMcat was determined by a WST-1 viability assay after 72-h treatment. For this purpose, cell lines derived from distinct tissues, often affected by NPSs, were chosen, i.e., cells of kidney, hepatic, neural, urinary, and intestinal origin as well as keratinocytes and primary fibroblasts (HEK 293T, Hep G2, HMC-3, SH-SY5Y, 5637, CaCo-2, HaCaT, MRC-5, and BJ, respectively). The cytotoxicity of IBMcat and its enantiomers was concentration- and cell-line dependent, the IC50 values, which were in the micromolar range, are given in Table 2. […] This was followed by embryonic kidney cells HEK 293T (immortalized), in which the toxicity ranged between a concentration of 123 and 192 µM.
(§2) In this study, the following cell lines were used: HEK 293T, Hep G2, HMC-3, SH-SY5Y, 5637, CaCo-2, HaCaT, MRC-5, BJ, and L929. […] The selected cell lines were chosen so that not only primary noncancerous cells are evaluated but also cells derived from tissues, which are the most often affected by novel synthetic drugs, i.e., kidney, liver, urinary bladder, and nervous tissue. […]
(§3) The cytotoxicity of IBMCat was evaluated in vitro by using a WST-1 viability assay (Sigma-Aldrich, Saint Louis, MO, USA) based on the transformation of a tetrazolium salt into colored formazan in metabolically active cells. […] After 72 h of additional incubation of the cells, their viability was determined by WST-1. […] The cells were incubated for 2 h, after which absorbance of the raised formazan was measured spectrophotometrically at 450 nm (reference wavelength of 630 nm) using a UV-Vis spectrometer (Bio-Rad Laboratories, Hercules, CA, USA). […] The half-maximal inhibitory concentrations (IC50) were calculated from the measured dose–response curves by AAT Bioquest.

[2] = test system: 5637; assay: WST-1 viability assay, 5637 cells; conditions: 5637, 72 h incubation, WST-1, four replicates
Protocol: as §1, §2, §3

[3] = test system: CaCo-2; assay: WST-1 viability assay, CaCo-2 cells; conditions: CaCo-2, 72 h incubation, WST-1, four replicates
Protocol: as §1, §2, §3

[4] = test system: BJ; assay: WST-1 viability assay, BJ cells; conditions: 72 h incubation, WST-1, four replicates
Protocol: as §1, §2, §3

Row | Structure (SMILES) | IC50 ([1]; Homo sapiens) [µM] | IC50 ([2]; Homo sapiens) [µM] | IC50 ([3]; Homo sapiens) [µM] | IC50 ([4]; Homo sapiens) [µM] | IC50 [1] [µM] | IC50 [2] [µM] | IC50 [3] [µM] | IC50 [4] [µM]
1 | CNC(C)C(=O)c1ccc(CC(C)C)cc1.Cl (stereo not drawn) [IBMcat, 4-isobutylmethcathinone hydrochloride] | 44 ± 5 | 18 ± 1 | 389 ± 42 | 749 ± 102 | – | – | – | –
2 | CN[C@H](C)C(=O)c1ccc(CC(C)C)cc1 [R-IBMCat] | – | – | – | – | 52 ± 4 | 20 ± 1 | 331 ± 19 | 698 ± 88
3 | CN[C@@H](C)C(=O)c1ccc(CC(C)C)cc1 [S-IBMCat, (S)-4-isobutylmethcathinone hydrochloride] | 50 ± 1 | 21 ± 4 | 390 ± 17 | 685 ± 41 | – | – | – | –
